Source: PubChem BioAssay (NCI)
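Cultured in 96-well plates, cells were exposed to test compound for 48 hours across five concentrations. The concentration for 50% growth inhibition is given as GI50. TGI marks complete inhibition of growth.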

What was measured:
Assay in all cases: NCI tumour cell line growth inhibition, 48 h
COLO 205 colon = system: COLO 205 colon
HCC-2998 colon = system: HCC-2998 colon
HOP-62 NSCLC = system: HOP-62 NSCLC
HT29 colon = system: HT29 colon
OVCAR-8 ovarian = system: OVCAR-8 ovarian
SF-295 CNS = system: SF-295 CNS
SN12C renal = system: SN12C renal
SNB-19 CNS = system: SNB-19 CNS
UO-31 renal = system: UO-31 renal
PC-3 prostate = system: PC-3 prostate

SMILES | TGI (COLO 205 colon) | TGI (HCC-2998 colon) | TGI (HOP-62 NSCLC) | TGI (HT29 colon) | TGI (OVCAR-8 ovarian) | TGI (SF-295 CNS) | TGI (SN12C renal) | TGI (SNB-19 CNS) | TGI (UO-31 renal) | GI50 (COLO 205 colon) | GI50 (HCC-2998 colon) | GI50 (SF-295 CNS) | GI50 (SN12C renal) | GI50 (UO-31 renal) | GI50 (HOP-62 NSCLC) | GI50 (HT29 colon) | GI50 (OVCAR-8 ovarian) | GI50 (PC-3 prostate) | TGI (PC-3 prostate) | GI50 (SNB-19 CNS)
N#Cc1cccc(C2C(=O)c3ccc(C(=O)c4ccc5c(c4)C(=O)N(c4ccc(Oc6ccc(N7C(=O)c8ccc(C(=O)c9ccc%10c(c9)C(=O)N(c9cccc(C#N)c9)C%10=O)cc8C7=O)cc6)cc4)C5=O)cc3C2=O)c1 (configuration not stated) | > 100 µM | > 100 µM | > 100 µM | > 100 µM | > 100 µM | > 100 µM | > 100 µM | > 100 µM | > 100 µM |  |  |  |  |  |  |  |  |  |  | 
N#CCCN(c1ccc(C=O)cc1)S(=O)(=O)c1ccccc1 |  | > 100 µM | > 100 µM | > 100 µM | > 100 µM | > 100 µM | > 100 µM | > 100 µM | > 100 µM |  |  |  |  |  |  |  |  |  |  | 
COc1ccc2nc3ccccc3c(NCCN(CCCl)CCCl)c2c1 |  | 2.73 µM | 2.97 µM | 61.1 µM | 2.9 µM | 10 µM | 4.21 µM | 7.66 µM | 4.39 µM |  |  |  |  |  |  |  |  |  |  | 
O=C(CC(=O)c1cccc([N+](=O)[O-])c1)C(=O)Nc1ccccc1 |  | > 100 µM | > 100 µM | > 100 µM | > 100 µM | > 100 µM | > 100 µM | > 100 µM | > 100 µM |  |  |  |  |  |  |  |  |  |  | 
CN1C2(c3ccccc3)C(C(=O)c3ccccc3)=C(C(=O)c3ccccc3)C1(c1ccccc1)c1c(-c3ccccc3)sc(-c3ccccc3)c12 | > 100 µM | > 100 µM | > 100 µM | > 100 µM | > 100 µM | > 100 µM | > 100 µM | > 100 µM | > 100 µM |  |  |  |  |  |  |  |  |  |  | 
Cc1ccc(NC(=O)CC2SC(=Nc3ccc(Cl)cc3)NC2=O)cc1C (configuration not stated) | 32.4 µM | 33.6 µM | > 100 µM | 33.2 µM | 32.8 µM | > 73.3 µM | 31.9 µM | > 100 µM | 32.6 µM |  |  |  |  |  |  |  |  |  |  | 
CCCCCCCCCCCCCCCCCC[S+](C)CC (configuration not stated) | 2.81 µM | 2.68 µM |  |  |  | 2.59 µM | 4.44 µM |  | 2.62 µM | 1.42 µM | 1.23 µM | 1.2 µM | 1.86 µM | 1.2 µM |  |  |  |  |  | 
Cc1ccccc1-n1c(CCl)nc2ccc(Br)cc2c1=O | 26.4 µM | 30.8 µM | 56 µM | 16.7 µM | 27.1 µM | 58.4 µM | 16.6 µM | 77.1 µM | 28.2 µM |  |  |  |  |  |  |  |  |  |  | 
CC1=C(C(=O)Nc2ccc(C)cc2)C(c2cccc([N+](=O)[O-])c2)C(C(=O)Nc2ccc(C)cc2)=C(C)N1 | 28.1 µM | > 100 µM | 89.4 µM | 49.4 µM | > 100 µM | 82.3 µM | 67.4 µM | > 100 µM | > 100 µM |  |  |  |  |  |  |  |  |  |  | 
Nc1cc(N)c2nc(NCCc3ccc(Cl)c(Cl)c3)cnc2c1 | 24.3 µM |  | 38 µM | 18.8 µM | 25.3 µM | 29.6 µM | 23.9 µM | 30 µM | 20.3 µM | 5.6 µM |  | 15.3 µM | 11.7 µM | 6.3 µM | 19.8 µM | 6.47 µM | 12.7 µM | 9.32 µM | 21.3 µM | 15.8 µM
